How the values were obtained:
[1] = system: genetically diabetic C57 BL male db/db mice; experiment: Plasma glucose reduction in genetically diabetic db/db mice after 5 days of oral treatment; assay type: in vivo; details: Mus musculus, 120 h, 5 consecutive days, plasma glucose reduction vs basal level before treatment; for inhibition in vivo at 1 mg/kg: 1 mg/kg p.o.; for inhibition in vivo at 10 mg/kg: 10 mg/kg p.o.; for inhibition in vivo at 5 mg/kg: 5 mg/kg p.o.
Procedure: The pharmacological effect of the compounds is assessed in genetically diabetic C57 BL male db/db 9–11 weeks old mice, as well as in control C57 BL db/+ animals of the same strain and age. […] In each experimental group, 8–10 animals are used, which are treated with different doses of the compounds: 1 mg/kg, 5 mg/kg, 10 mg/kg or 25 mg/kg orally during 5 consecutive days.
In the day 0 of the experiment, blood samples are collected in heparinized tubes by punction of the retroorbital vein. Plasma is separated and the levels of basal glucose and insulin are quantified.
After concluding the treatments, blood samples of each animal are collected again and plasmatic post-treatment glucose and insulin levels are quantified.
The determination of glucose is carried out by means of an enzymatic method that converts glucose into glucose 6-phosphate, a reaction coupled with the reduction of nicotinamide-dinucleotide phosphate (NADP) to NADPH by the action of glucose-6-P-dehydrogenase. The NADPH reduces the iodonitrotetrazolium, which is quantified spectrophotometrically. The absorbency at 520 nm is proportional to the concentration of glucose, ref: Randox GI, 2623 (Bergmeyer H. U., Bernt E., Schmidt F. H., Stork H. In Methods of Enzymatic Analysis, Academic Press: London and New York 1974, p. 1196).
The results are expressed as the reduction percent with regard to the basal levels determined before the beginning of the treatment.

[2] = system: genetically diabetic C57 BL male db/db mice; experiment: as above; assay type: in vivo; details: Mus musculus, 120 h, 100 mg/kg p.o., 5 consecutive days, plasma glucose reduction vs basal level before treatment

CN(CCOc1ccc(CC2SC(=O)NC2=O)cc1)c1cc(Cl)nc(N)n1 (centres unmarked) [Example 3, 5-(4-{2-[(2-amino-6-chloropyrimidin-4-yl)-methyl-amino]-ethoxy}-benzyl)-thiazolidine-2,4-dione]
inhibition in vivo at 1 mg/kg [1]: 47%

COc1cc(N(C)CCOc2ccc(CC3SC(=O)NC3=O)cc2)nc(OC)n1 (centres unmarked) [Example 4, 5-(4-{2-{(2,6-Dimethoxypyrimidin-4-yl)-methyl-amino]-ethoxy}-benzyl)-thiazolidine-2,4-dione]
inhibition in vivo at 1 mg/kg [1]: 53%

CN(CCOc1ccc(CC2SC(=O)NC2=O)cc1)c1ncnc2nc[nH]c12 (centres unmarked) [Example 7, 5-(4-{2-[Methyl-(7H-purin-6-yl)-amino]-ethoxy}-benzyl)-thiazolidine-2,4-dione]
inhibition in vivo at 10 mg/kg [1]: 47%

CN(CCOc1ccc(CC2SC(=O)NC2=O)cc1)c1ncnc2c1ncn2C1OC(CO)C(O)C1O (centres unmarked) [Example 11]
inhibition in vivo at 10 mg/kg [1]: 30%

CN(CCOc1ccc(CC2SC(=O)NC2=O)cc1)c1ncnc2c1ncn2C (centres unmarked) [Example 12, 5-(4-{2-[Methyl-(9-methyl-9H-purin-6-yl)-amino]-ethoxy}-benzyl)-thiazolidine-2,4-dione]
inhibition in vivo at 10 mg/kg [1]: 25%

CN(CCOc1ccc(CC2SC(=O)NC2=O)cc1)c1cc(Cl)ncn1 (centres unmarked) [Example 14, 5-(4-{2-[(6-chloropyrimidin-4-yl)-methylamino]-ethoxy}-benzyl)-thiazolidine-2,4-dione]
inhibition in vivo at 1 mg/kg [1]: 51%

COc1cc(N(C)CCOc2ccc(CC3SC(=O)NC3=O)cc2)ncn1 (centres unmarked) [Example 17, 5-(4-{2-[(6-Methoxypyrimidin-4-yl)-methylamino]-ethoxy}-benzyl)-thiazolidine-2,4-dione]
inhibition in vivo at 1 mg/kg [1]: 48%

CN(CCOc1ccc(CC2SC(=O)NC2=O)cc1)c1ccncn1 (centres unmarked) [Example 20, 5-{4-[2-(Methylpyrimidin-4-yl-amino)ethoxy]benzyl}-thiazolidine-2,4-dione]
inhibition in vivo at 5 mg/kg [1]: 21%

CN(C)c1cc(N(C)CCOc2ccc(CC3SC(=O)NC3=O)cc2)ncn1 (centres unmarked) [Example 21, 5-(4-{2-[(6-Dimethylaminopyrimidin-4-yl)-methylamino]-ethoxy}-benzyl)-thiazolidine-2,4-dione]
inhibition in vivo at 25 mg/kg ([1]; 25 mg/kg p.o.): 36%

CN(CCOc1ccc(CC2SC(=O)NC2=O)cc1)c1cc(O)ncn1 (centres unmarked) [Example 22, 5-(4-{2-[(6-Hydroxypyrimidin-4-yl)-methylamino]-ethoxy}-benzyl)-thiazolidine-2,4-dione]
inhibition in vivo at 5 mg/kg [1]: 22%

Cc1c(C)c2c(c(C)c1O)CCC(C)(COc1ccc(CC3SC(=O)NC3=O)cc1)O2 (centres unmarked) [Troglitazone]
inhibition in vivo at 100 mg/kg [2]: 38%
